For assay [1], the system named is mitochondrial respiratory complex I. Description: Mitochondrial respiratory complex I activity in DRG of STZ-diabetic mice. It is filed as in vivo, mouse. The conditions noted are these: daily injections for 8 weeks, lumbar DRG. As to the method: (§1) All measurements of enzymatic activities in lumbar DRG preparations were performed spectrophotometrically using a temperature controlled Ultrospec 2100 UV-visible spectrophotometer (Biopharmacia Biotech, Uppsala, Sweden) using the methods taught by Chowdhury et al. (2010). Complex I activity was measured as rotenone-sensitive NADH: cytochrome c reductase activity. Freshly prepared assay buffer (50 mmol/l K-phosphate pH 7.4, 1 mmol/l KCN, 100 μmol/l NADH) and 10 μg protein of DRG homogenate preparation were added to the cuvette and preincubated for 3 min at 25° C. After addition of 100 μmol/l oxidized cytochrome c, the reaction was followed for 2 minutes at 550 nm and then for 2 more minutes after addition of 25 μmol/l rotenone to allow calculation of the rotenone-sensitive Complex I activity. Complex IV activity was measured at 25° C. by monitoring the absorbance decrease of reduced cytochrome c at 550 nm as disclosed by Chowdhury et al. (2000, Clin. Chim. Acta 298: 157-173). […] Activity of the Krebs cycle enzyme, citrate synthase, was determined at 25° C. in medium containing 150 mmol/l Tris-HCl (pH 8.2), 0.02% laurylmaltoside, 0.1 mmol/l dithionitrobenzoic acid and 5 μg protein according to the method of Chowdhury et al (2007, Free Radic. Res. 41: 1116-1124). The reaction was initiated by addition of 100 μmol/l acetyl CoA and changes in absorbance at 412 nm were measured for 1 minute. […]

Assay [2] has as its system mitochondrial respiratory complex IV. Briefly: Mitochondrial respiratory complex IV activity in DRG of STZ-diabetic mice. Format: in vivo, mouse. The conditions noted are these: daily injections for 8 weeks, lumbar DRG. The method, then: as §1
Assay [3] concerns mitochondria from lumbar DRG of STZ-diabetic rats. Briefly: Mitochondrial respiratory chain activity in lumbar DRG of STZ-diabetic rats. Format: in vivo, rat. The conditions noted are these: daily s.c. during last eight weeks, 20 weeks. An excerpt:
The rats were then culled and subsequently the lumbar DRG were isolated and rinsed in ice-cold solution containing STE buffer (250 mmol/l sucrose, 10 mmol/l Tris-HCl, 1 mmol/l EDTA, pH 7.4), and then homogenized with a polytron homogenizer ([…] GmbH, Switzerland) using 3×7.5 s grinding pulses at 30 s intervals according to the method taught by Chowdhury et al. (2010).
Mitochondrial respiratory chain activity in freshly isolated mitochondria from lumbar DRG of age-matched control, diabetic, and pirenzepine-treated diabetic rats was determined using a Clarke-type electrode (Oroboros Oxygraph-2K; Oroboros Instruments, Innsbruck, Austria) following the method taught by Chowdhury et al. (2005, Biochem Biophys Res Commun. 333: 1139-1145), in the presence of specific substrates and inhibitors of the mitochondrial respiratory chain (FIG. 19). Basal respiration in lumbar DRG mitochondria is stated as respiration at state 4 with energetic substrates, pyruvate and malate (P+M). Coupled respiration at state 3 was induced by addition of ADP. Then, the uncoupled rate was determined by adding the uncoupling agent, carbonylcyanide p-trifluoromethoxyphenylhydrazone (FCCP). Ascorbate (Asc) and N,N,N′,N′-tetramethyl-p-phenylenediamine (TMPD) were then added to determine the capacity of cytochrome c oxidase (complex IV). TMPD is an artificial redox mediator that assists transfer of electrons from ascorbate to cytochrome c.

The next assay concerns citrate synthase. Description: Citrate synthase activity in DRG of STZ-diabetic mice. It is filed as in vivo, mouse. The conditions noted are these: daily injections for 8 weeks, lumbar DRG. As to the method:
as §1

In assay [4] the test system is DRG sensory neurons from wildtype mice. Description: Neurite outgrowth in sensory neuron cultures from wildtype mice. The conditions noted are these: 1 μM, 24 hr, low dose growth factors. Format: cell-based, mouse.
Assay [5] concerns STZ diabetic Sprague Dawley rats. Briefly: Reversal of thermal hypoalgesia in diabetic rats, subcutaneous. Format: in vivo, rat. The following applies: 10 mg/kg daily s.c. from week 12; 20th week, 8 weeks of treatment. The method, then: One group of adult male Sprague Dawley rats were made diabetic with a single intraperitoneal injection of 75 mg/kg STZ, while a second group of adult male rats were maintained as non-diabetic controls. The two groups of rats were monitored for the onset of […] by assessing thermal latency at 4-wk intervals.

For assay [6], the system named is STZ diabetic C57Bl6J mice. Description: Prophylactic subcutaneous injections in STZ diabetic mice. It is filed as in vivo, mouse.
Description: Male C57Bl6J mice were made diabetic with 2 injections of 90 mg/kg STZ on consecutive days, and then separated into four groups.
Two months after the second STZ injection, the function of the small sensory neurons in all five groups of mice were determined by measuring hind paw thermal response latency using a modified Hargreaves apparatus (UARD, San Diego, CA, US) with a heating rate of approximately 1° C./sec from a baseline of 30° C. and with a cut-off at 20 seconds as taught by Calcutt et al. (2004, Diabetologia 47: 718-724). […] Statistical analysis was done using the one-way ANOVA with post-hoc comparison using Tukey's test.
The structural integrity of small sensory neurons was assessed by measuring intraepidermal nerve fiber (IENF) profiles in hind paw plantar skin that was immersion fixed in 4% paraformaldehyde and processed to paraffin blocks. Sections (6 μm) were stained with the pan-neuronal marker PGP9.5 (1:1000, Biogenesis Ltd., Poole, UK) and viewed under a light microscope to allow counting of IENF and sub-epidermal nerve profiles (SNP) per unit length of the dermal: epidermal border using the technique taught by Beiswenger et al. (2008, Neurosci Lett. 442, 267-272). […] Statistical analyses were done using one-way ANOVA followed by Tukey's test.
Motor nerve conduction velocity was measured under isoflurane anesthesia and core and nerve temperature were maintained at 37° C. using a heating pad and lamps following the teachings of Jolivalt et al, (2011, Diabetes Obesity and Metabolism, June 2 Epub ahead of print). The sciatic nerve was stimulated (5V, 0.05 ms pulse, square wave) with needle electrodes at the sciatic notch or ankle. […] The difference in response latencies of the M wave after stimulation at the sciatic notch and ankle was recorded as the time required for the motor nerve conduction between the stimulation sites. The distance between stimulation sites was measured on the surface of the fully extended hind limb and divided by the difference in M wave latencies to calculate sciatic motor nerve conduction velocity (MNCV). […]
For assay [7], the system named is STZ-diabetic Swiss Webster mice. Briefly: Reversal of diabetic sensory neuropathy with oral dosing. It is filed as in vivo, mouse. As to the method:
Male out-bred Swiss Webster mice were made diabetic with 2 injections of 90 mg/kg STZ on consecutive days. […] The mice were maintained for 8 weeks after STZ injections.

Assay [8] has as its system DRG sensory neurons from M1R knockout mice. Description: Neurite outgrowth in sensory neuron cultures from M1R knockout mice. It is filed as cell-based, mouse. The conditions noted are these: 1 μM, 24 hr.
The subject of assay [9] is STZ diabetic Swiss Webster mice. Description: Restorative subcutaneous injections in diabetic mice. It is filed as in vivo, mouse. The conditions noted are these: 10 mg/kg daily s.c. from week 14. As to the method: Male out-bred Swiss Webster mice were made diabetic with 2 injections of 90 mg/kg STZ on consecutive days. […] The mice were maintained for 14 weeks after STZ injections. […] At 14 weeks, the diabetic mice were separated into two groups. The first was the untreated group of diabetic mice.
The function of the small sensory neurons in diabetic and non-diabetic groups of mice were assessed at 5 wks, 7 wks, 11 wks, and 14 wks after the STZ injections.

Setting [10] is: 10 mg/kg daily s.c., two months after STZ, vs control mice.
The mark [11] stands for this setting: daily oral gavage for 8 weeks from week 8.

`CN1CCN(CC(=O)N2c3ccccc3C(=O)Nc3cccnc32)CC1` [pirenzepine, 11-[2-(4-methylpiperazin-1-yl)acetyl]-5H-pyrido[2,3-b][1,4]benzodiazepin-6-1]: the “activity of mitochondrial respiratory complex I” value in assay [1] is recorded as “restored the deficits”. Further, the “activity of mitochondrial respiratory complex IV” value in [2] was “restored the deficits”. Further, in assay [3], the “capacity of cytochrome c oxidase (complex IV) (Asc+TMPD)” value is “not significantly different from the non-diabetic controls”, the “coupled respiration (P+M+ADP)” value is recorded as “not significantly different from the non-diabetic controls” and the “uncoupled respiration (FCCP)” value was “not significantly different from the non-diabetic controls”. Moreover, the “basal respiration rates with pyruvate and malate (P+M)” value in assay [3] (vs control and diabetic rats) is listed as “similar”. In addition, in the assay on citrate synthase, the “activity of citrate synthase” value is reported as “restored the deficits”. Besides, the “neurite outgrowth compared with LD control” value in assay [4] is 2 fold. For the same molecule, the thermal latency result in assay [5] was “dropped to approximate the levels in the non-diabetic control rats”. In [6] (setting [10]), the “hind paw thermal response latency” value is “not significantly different from the control non-diabetic mice” and the “paw levels of IENF” value is listed as “no significant changes”. Further, the “motor nerve conduction velocity” value in [6] (diabetic mice) is on record as “prevented deficits in motor nerve conduction velocity”. Moreover, in assay [7] (setting [11]), the “loss of IENF” value is given as “reversed loss”, the “loss of SNP” value was “reversed loss” and the thermal hypoalgesia result was “reversed thermal hypoalgesia”. The “efficacy of oral formulation” value in assay [7] (dissolved in water, administered orally to mice) is reported as “exhibited efficacy”. Besides, the neurite outgrowth entry in [8] is recorded as “did not enhance neurite outgrowth”. Besides, the thermal latency result in assay [9] (21st week, 7 weeks of treatment) was “identical to the non-diabetic controls”. Besides, the IENF profiles entry in assay [9] (at 21 weeks) is “restored the IENF profiles to approximate those of the non-diabetic control mice”. Also, in assay [9] (within 4 weeks of treatment (18 weeks)), the thermal latency result is given as “significantly reduced thermal latency”.
